Laboratory results reported in patent US12263199B2, “Use of Sida rhombifolia” (priority 2019, dated 2025).

Test system: 5-alpha reductase (5AR)
Experiment: Analysis of the ability of inhibition of 5AR activity (β-NADPH absorbance)
Type: biochemical, Sprague Dawley rats
Conditions: finasteride 100 uM, rat prostate enzyme source, 7.5 mM testosterone, 30 minutes
Method: In order to prepare the 5AR enzyme source, first, 15-week-old Sprague Dawley rats (obtained from Coretech) were kept under CO2 inhalation anesthesia, and then the prostate tissue was excised. After washing 200 mg of the excised tissue twice with PBS at pH 7.4, 10 ml of lysis buffer {20 mM sodium phosphate containing 0.32 M sucrose and 1 mM ethylenediaminetetraacetic acid (EDTA) at pH 6.5} was added, followed by homogenizing the mixture by a glass homogenizer. The homogenate was centrifuged at 4° C. and 5,000 rpm for 15 minutes to take the supernatant and quantify a protein using Brad Ford reagent, and then the protein was used as a 5AR enzyme source. The remaining homogenate was stored at −70° C.
The ability to inhibit 5AR activity was measured using the method of Nahata and Dixit {Andrologia, 46(6):592-601, 2014}. In a 96-well plate, the enzyme source (0.8 mg/ml protein) prepared as in 2-2, a solution obtained by dissolving the solvent extract prepared in 2-1. in methanol (50 ug/ml), 7.5 mM testosterone, and 300 uM β-NADPH were reacted at 37° C. Thereafter, absorbance according to the change in the amount of β-NADPH at 350 nm was measured every 5 minutes for a total of 30 minutes. The measurement value was calculated using a standard graph of β-NADPH, and the unit was expressed as pg/ml. […]

SMILES: CC(C)(C)NC(=O)[C@H]1CC[C@H]2[C@@H]3CC[C@H]4NC(=O)C=C[C@]4(C)[C@H]3CC[C@]12C [finasteride]
- concentration of β-NADPH in the reaction solution at the end of the reaction (5AR activity inhibition): concentration of β-NADPH increased compared to that in the negative control group
